# Assay results taken from ChEMBL document CHEMBL5257031, “Drug-like Antagonists of P2Y Receptors-From Lead Identification to Drug Development” (J Med Chem, 2016).
# Key:
# P2Y purinoceptor 1 [1] = target: T1, P2Y purinoceptor 1 (Homo sapiens, UniProt P47900); assay: Inhibition of human P2Y1
# [2] = Antagonist activity at human P2Y12 by aggregation assay
# P2Y purinoceptor 13 [3] = target: T2, P2Y purinoceptor 13 (Homo sapiens, UniProt Q9BPV8); assay: Antagonist activity at human P2Y13
# T2 sequence (Q9BPV8 whole entry): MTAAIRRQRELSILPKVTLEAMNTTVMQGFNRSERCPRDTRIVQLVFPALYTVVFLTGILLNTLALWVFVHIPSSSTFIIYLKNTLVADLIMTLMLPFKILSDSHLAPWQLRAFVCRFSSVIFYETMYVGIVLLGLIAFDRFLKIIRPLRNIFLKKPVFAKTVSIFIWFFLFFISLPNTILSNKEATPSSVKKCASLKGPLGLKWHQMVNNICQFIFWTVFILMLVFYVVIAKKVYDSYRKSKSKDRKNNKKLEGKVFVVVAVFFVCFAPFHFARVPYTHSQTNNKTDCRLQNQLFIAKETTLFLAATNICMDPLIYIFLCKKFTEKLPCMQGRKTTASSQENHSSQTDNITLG
# P2Y purinoceptor 1 [4] = target: T1, P2Y purinoceptor 1; assay: Inhibition of human P2Y1 assessed as inhibition constant
# [5] = Oral bioavailability in mouse; settings: in vivo
# [6] = Binding affinity to chimpanzee P2Y14 assessed as inhibition constant; parameters: species or system Pan troglodytes
# [7] = Cmax in rat measured up to 24 hrs; assay type: ADME; parameters: time < 24 hrs; settings: in vivo
# [8] = Cmax in mouse measured up to 24 hrs; assay type: ADME; parameters: time < 24 hrs; settings: in vivo
# in vivo = settings: mouse, po
# P2Y purinoceptor 1 [9] = target: T1, P2Y purinoceptor 1; assay: Agonist activity at human P2Y1
# P2Y purinoceptor 13 [10] = target: T2, P2Y purinoceptor 13; assay: Antagonist activity at P2Y13 (unknown origin)
# P2Y purinoceptor 4 [11] = target: T3, P2Y purinoceptor 4 (Homo sapiens, UniProt P51582); assay: Agonist activity at human P2Y4 transfected in human 1321N1 cells; assay type: cell-based
# P2Y purinoceptor 4 [12] = target: T3, P2Y purinoceptor 4
# P2Y purinoceptor 4 [13] = target: P2Y purinoceptor 4 (Rattus norvegicus, UniProt O35811); assay: Agonist activity at rat P2Y4
# P2Y purinoceptor 12 [14] = target: T4, P2Y purinoceptor 12 (Homo sapiens, UniProt Q9H244); assay: Antagonist activity at human P2Y12
# P2Y purinoceptor 14 [15] = target: T5, P2Y purinoceptor 14 (Rattus norvegicus, UniProt O35881); assay: Antagonist activity at rat P2Y14
# T5 sequence (O35881 whole entry): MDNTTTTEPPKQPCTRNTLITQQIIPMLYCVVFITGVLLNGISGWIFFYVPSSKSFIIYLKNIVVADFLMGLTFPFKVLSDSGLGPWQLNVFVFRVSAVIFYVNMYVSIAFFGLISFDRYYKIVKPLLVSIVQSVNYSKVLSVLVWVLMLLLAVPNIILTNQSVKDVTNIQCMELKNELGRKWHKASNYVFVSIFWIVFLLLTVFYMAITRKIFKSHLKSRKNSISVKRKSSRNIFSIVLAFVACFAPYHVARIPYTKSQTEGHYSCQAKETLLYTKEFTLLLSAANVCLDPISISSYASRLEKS
# P2Y purinoceptor 6 = P2Y purinoceptor 6 (Homo sapiens, UniProt Q15077); assay: Antagonist activity at human P2Y6
# [16] = target: P2Y purinoceptor 4 (Rattus norvegicus) (UniProt O35811); assay: Agonist activity at rat P2Y4 transfected in human 1321N1 cells at 100 uM relative to control; assay type: cell-based
# P2Y purinoceptor 4 [17] = target: T3, P2Y purinoceptor 4; assay: Agonist activity at human P2Y4 transfected in human 1321N1 cells at 100 uM relative to control; assay type: cell-based
# P2Y purinoceptor 12 [18] = target: T4, P2Y purinoceptor 12; assay: Displacement of [3H]-2-MeS-ADP from human P2Y12 assessed as inhibition constant incubated for 30 mins
# [19] = Half life in C57BL/6 mouse 2 mg/kg, iv; assay type: ADME, organism-based; settings: in vivo
# [20] = Half life in C57BL/6 mouse 2 mg/kg, iv; settings: in vivo
# [21] = Oral bioavailability in C57BL/6 mouse at 50 mg/kg; settings: in vivo
# [22] = Clearance in rat; assay type: ADME; settings: in vivo
# [23] = Volume of distribution at steady state in rat; assay type: ADME; settings: in vivo
# [24] = Volume of distribution at steady state in rat at 30 mg/kg, PO; assay type: ADME, organism-based; settings: in vivo
# [25] = Half life in rat 1 mg/kg, iv; assay type: ADME, organism-based; settings: in vivo
# [26] = Clearance in rat at 30 mg/kg, po; assay type: ADME, organism-based; settings: in vivo
# [27] = Half life in rat 30 mg/kg, po; assay type: ADME, organism-based; settings: in vivo
# P2Y purinoceptor 14 [28] = target: T6, P2Y purinoceptor 14 (Homo sapiens, UniProt Q15391); assay: Antagonist activity at human P2Y14 expressed in CHO cells assessed as inhibition constant; assay type: cell-based
# T6 sequence (Q15391 whole entry): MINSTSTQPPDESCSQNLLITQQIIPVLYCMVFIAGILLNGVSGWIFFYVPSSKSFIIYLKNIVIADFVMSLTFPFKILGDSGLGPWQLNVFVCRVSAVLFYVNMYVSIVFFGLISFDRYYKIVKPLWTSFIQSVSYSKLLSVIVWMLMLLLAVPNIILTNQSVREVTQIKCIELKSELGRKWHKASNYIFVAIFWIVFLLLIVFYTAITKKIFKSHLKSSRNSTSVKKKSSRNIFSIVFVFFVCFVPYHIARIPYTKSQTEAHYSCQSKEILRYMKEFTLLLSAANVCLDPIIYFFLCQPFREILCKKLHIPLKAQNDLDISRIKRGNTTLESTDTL
# P2Y purinoceptor 2 = P2Y purinoceptor 2 (Mus musculus, UniProt P35383); assay: Antagonist activity at mouse P2Y2
# [29] = Antagonist activity at ATP gamma S induced mucin in Normal human bronchial epithelial cell; assay type: cell-based
# [30] = Antagonist activity at P2Y14 using UDP-Glc as substrate
# [31] = Antagonist activity at human pA2 by FLIPR assay
# T1 sequence (P47900 whole entry): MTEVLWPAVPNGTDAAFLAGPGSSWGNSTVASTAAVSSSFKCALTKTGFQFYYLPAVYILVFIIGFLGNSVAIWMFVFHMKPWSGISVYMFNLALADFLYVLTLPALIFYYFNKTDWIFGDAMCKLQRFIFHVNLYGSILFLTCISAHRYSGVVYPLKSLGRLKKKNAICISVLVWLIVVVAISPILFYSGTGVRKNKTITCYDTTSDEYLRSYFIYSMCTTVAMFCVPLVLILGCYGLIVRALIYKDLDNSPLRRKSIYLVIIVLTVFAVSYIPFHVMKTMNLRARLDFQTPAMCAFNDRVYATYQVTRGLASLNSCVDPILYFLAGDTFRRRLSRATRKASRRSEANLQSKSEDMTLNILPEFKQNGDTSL
# T3 sequence (P51582 whole entry): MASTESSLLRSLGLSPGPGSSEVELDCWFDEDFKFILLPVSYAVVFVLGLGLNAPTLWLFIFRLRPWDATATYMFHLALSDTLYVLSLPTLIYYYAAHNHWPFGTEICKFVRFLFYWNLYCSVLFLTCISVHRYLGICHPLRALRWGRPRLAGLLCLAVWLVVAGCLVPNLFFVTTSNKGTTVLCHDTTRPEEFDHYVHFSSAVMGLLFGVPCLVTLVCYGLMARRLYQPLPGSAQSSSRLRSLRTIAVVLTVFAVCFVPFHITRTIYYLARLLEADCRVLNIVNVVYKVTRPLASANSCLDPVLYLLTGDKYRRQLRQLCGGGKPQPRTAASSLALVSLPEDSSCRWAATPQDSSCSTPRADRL
# T4 sequence (Q9H244 whole entry): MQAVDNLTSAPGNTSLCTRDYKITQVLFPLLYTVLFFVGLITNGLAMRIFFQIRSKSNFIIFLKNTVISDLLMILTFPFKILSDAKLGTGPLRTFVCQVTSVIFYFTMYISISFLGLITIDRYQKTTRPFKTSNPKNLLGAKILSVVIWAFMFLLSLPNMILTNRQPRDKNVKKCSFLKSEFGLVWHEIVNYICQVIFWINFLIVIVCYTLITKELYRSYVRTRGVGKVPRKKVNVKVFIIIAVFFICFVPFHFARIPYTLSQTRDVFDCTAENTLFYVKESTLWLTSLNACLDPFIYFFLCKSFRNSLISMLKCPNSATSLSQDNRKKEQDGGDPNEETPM
# Sequence of P2Y purinoceptor 6 (Q15077 whole entry): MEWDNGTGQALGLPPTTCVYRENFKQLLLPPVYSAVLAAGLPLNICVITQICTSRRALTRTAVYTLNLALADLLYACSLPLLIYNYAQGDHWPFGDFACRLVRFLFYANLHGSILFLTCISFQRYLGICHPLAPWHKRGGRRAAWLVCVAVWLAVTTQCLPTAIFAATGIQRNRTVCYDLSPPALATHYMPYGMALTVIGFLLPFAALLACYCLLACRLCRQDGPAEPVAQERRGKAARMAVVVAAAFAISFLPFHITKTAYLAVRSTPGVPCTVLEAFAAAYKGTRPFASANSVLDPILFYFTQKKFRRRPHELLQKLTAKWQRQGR
# Sequence of P2Y purinoceptor 4 (Rattus norvegicus) (O35811 whole entry): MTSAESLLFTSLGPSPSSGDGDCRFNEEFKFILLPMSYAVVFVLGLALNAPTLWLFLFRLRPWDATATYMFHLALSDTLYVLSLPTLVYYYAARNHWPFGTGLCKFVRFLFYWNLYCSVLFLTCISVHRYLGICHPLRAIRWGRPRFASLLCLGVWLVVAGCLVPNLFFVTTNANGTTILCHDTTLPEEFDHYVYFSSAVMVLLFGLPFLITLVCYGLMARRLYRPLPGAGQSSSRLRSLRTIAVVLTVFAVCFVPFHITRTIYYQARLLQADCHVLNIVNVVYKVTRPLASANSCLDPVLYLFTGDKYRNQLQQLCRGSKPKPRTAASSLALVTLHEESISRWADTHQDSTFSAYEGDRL
# Sequence of P2Y purinoceptor 4 (Rattus norvegicus, UniProt O35811) (O35811 whole entry): as above
# Sequence of P2Y purinoceptor 2 (P35383 whole entry): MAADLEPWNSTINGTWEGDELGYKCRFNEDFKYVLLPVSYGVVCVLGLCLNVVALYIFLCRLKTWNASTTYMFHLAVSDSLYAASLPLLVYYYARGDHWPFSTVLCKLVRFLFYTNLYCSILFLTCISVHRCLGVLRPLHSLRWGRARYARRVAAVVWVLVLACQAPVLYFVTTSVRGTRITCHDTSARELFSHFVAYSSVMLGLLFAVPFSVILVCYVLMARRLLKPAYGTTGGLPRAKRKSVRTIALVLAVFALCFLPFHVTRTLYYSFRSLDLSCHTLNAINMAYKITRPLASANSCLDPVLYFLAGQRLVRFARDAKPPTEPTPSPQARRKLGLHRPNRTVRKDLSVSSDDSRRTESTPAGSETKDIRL
structure (smiles),measurement,setting,value
CNc1ncnc2c1ncn2[C@H]1C[C@H](OP(=O)(O)O)[C@@H](COP(=O)(O)O)O1,IC50,P2Y purinoceptor 1 [1],330 nM
CCCCNc1nc(SCCC)nc2c1nnn2[C@@H]1C[C@H](/C=C/C(=O)N[C@@H](CC(=O)O)C(=O)O)[C@@H](O)[C@H]1O,pIC50,[2],9.3
Cc1nc(/N=N/c2ccc(Cl)c([N+](=O)[O-])c2)c(COP(=O)(O)O)c(C=O)c1O,IC50,P2Y purinoceptor 13 [3],661 nM
Cc1cc(Oc2ccccc2NC(=O)Nc2ccc(C3CCS(=O)(=O)CC3)cc2)n(-c2ccccc2Cl)n1,Ki,P2Y purinoceptor 1 [4],> 10000 nM
O=C(O)c1cc(-c2ccc(C3CCNCC3)cc2)c2ccc(-c3ccc(C(F)(F)F)cc3)cc2c1 [PPTN],bioavailability,[5],5%
same,Ki,[6],1.9 nM
same,Cmax,[7],680 nM
same,Cmax,[8],2280 nM
same,bioavailability,in vivo,5%
Nc1ncnc2c1ncn2[C@H]1C[C@H](OP(=O)(O)O)[C@@H](COP(=O)(O)O)O1,EC50,P2Y purinoceptor 1 [9],6300 nM
same,IC50,P2Y purinoceptor 1 [9],5800 nM
Cc1nc(/N=N/c2ccc(S(=O)(=O)O)cc2S(=O)(=O)O)c(COP(=O)(O)O)c(C=O)c1O,IC50,P2Y purinoceptor 13 [10],11600 nM
O=c1ccn([C@@H]2O[C@H](COP(=O)(O)OP(=O)(O)OP(=O)(O)O)[C@@H](O)[C@H]2O)c(=O)[nH]1 [URIDINE TRIPHOSPHATE],EC50,P2Y purinoceptor 4 [11],550 nM
Nc1ncnc2c1ncn2[C@@H]1O[C@H](COP(=O)(O)OP(=O)(O)OP(=O)(O)O)[C@@H](O)[C@H]1O [ADENOSINE TRIPHOSPHATE],EC50,P2Y purinoceptor 4 [12],6200 nM
same,EC50,P2Y purinoceptor 4 [13],1170 nM
CCOC(=O)N1CCN(C(=O)[C@H](CCC(=O)O)NC(=O)c2cc(OC(C)(C)C(=O)OCC)c3ccc(C)cc3n2)CC1,IC50,P2Y purinoceptor 12 [14],130 nM
O=c1ccn([C@@H]2O[C@H](COP(=O)(O)OP(=O)(O)O)[C@@H](O)[C@H]2O)c(=O)[nH]1 [URIDINE_DIPHOSPHATE],EC50,P2Y purinoceptor 14 [15],350 nM
S=C=Nc1ccc(CCc2ccc(N=C=S)cc2)cc1,IC50,P2Y purinoceptor 6,100 nM
Nc1c(S(=O)(=O)O)cc(Nc2ccc(Nc3nc(Cl)nc(Nc4cccc(S(=O)(=O)O)c4)n3)c(S(=O)(=O)O)c2)c2c1C(=O)c1ccccc1C2=O [RB 2],IC50,P2Y purinoceptor 13 [10],1900 nM
CCc1ccccc1-n1nc(C)cc1Oc1ccccc1NC(=O)Nc1ccc(OC(F)(F)F)cc1,Ki,P2Y purinoceptor 1 [4],70 nM
S=C=Nc1cccc(NC(=S)NCCCCNC(=S)Nc2cccc(N=C=S)c2)c1,IC50,P2Y purinoceptor 6,37 nM
Nc1ncnc2c1ncn2[C@@H]1O[C@H](COP(=O)(O)OP(=O)(O)O)[C@@H](O)[C@H]1O,Activity,[16],34%
same,Activity,P2Y purinoceptor 4 [17],15%
CCCSc1nc(N[C@@H]2C[C@H]2c2ccccc2)c2nnn([C@@H]3C[C@H](c4nnn[nH]4)[C@@H](O)[C@H]3O)c2n1,Ki,P2Y purinoceptor 12 [18],2 nM
Cc1cc(F)cc(C)c1COc1ccc2c(-c3ccsc3)cc(C(=O)O)cc2c1,half-life,[19],2.7 h
same,half-life,[20],2.7 h
same,bioavailability,[21],12%
Cc1cc(Oc2ccccc2NC(=O)Nc2ccc(OC(F)(F)F)cc2)n(-c2ccccc2Cl)n1,clearance,[22],81 mL/min/kg
same,Vdss,[23],15.7 L/kg
CC(C)(C)c1ccccc1Oc1ncccc1NC(=O)Nc1ccc(OC(F)(F)F)cc1,Vdss,[24],0.8 L/kg
same,half-life,[25],15.4 h
same,CL/F,[26],13 mL/min/kg
same,half-life,[27],1.4 h
Cc1nc(/N=N/c2cc([N+](=O)[O-])ccc2Cl)c(COP(=O)(O)O)c(C=O)c1O,IC50,P2Y purinoceptor 13 [3],1070 nM
CCCCNc1nc(SCCC)nc2c1nnn2[C@@H]1O[C@H](/C=C/C(=O)N[C@@H](CC(=O)O)C(=O)O)[C@@H](O)[C@H]1O,pIC50,[2],9.5
CC(=O)c1cc(C(=O)NCCCCCCn2cc(CCCCN3CCC(c4ccc(-c5cc(C(=O)O)cc6cc(-c7ccc(C(F)(F)F)cc7)ccc56)cc4)CC3)nn2)ccc1-c1c2ccc(=N)c(S(=O)(=O)O)c-2oc2c(S(=O)(=O)O)c(N)ccc12,Ki,P2Y purinoceptor 14 [28],0.08 nM
CCCCNc1nc(SCCC)nc2c1ncn2[C@@H]1O[C@H](/C=C/C(=O)N[C@@H](CC(=O)O)C(=O)O)[C@@H](O)[C@H]1O,pIC50,[2],7
COc1ccc(-c2cc(=O)c3c(OC)c(OC)c(OC)c(OC)c3o2)cc1 [TANGERETIN],IC50,P2Y purinoceptor 2,12000 nM
CCOC(=O)N1CCN(C(=O)[C@H](CCC(=O)O)NC(=O)c2cc(OC(C)(C)C(=O)O)c3ccc(C)cc3n2)CC1,IC50,P2Y purinoceptor 12 [14],8.3 nM
Cc1ccc2c(c1)C=Cc1cc(C)ccc1C2c1cn(Cc2ccc(C(=O)Nc3nnn[nH]3)o2)c(=O)[nH]c1=S,IC50,[29],1000 nM
O=C(O)c1cc(-c2ccccc2)c2ccc(OCc3ccccc3)cc2c1,IC50,[30],3500 nM
CNc1nc(Cl)nc2c1ncn2CCC(COP(=O)(O)O)COP(=O)(O)O,IC50,P2Y purinoceptor 1 [9],840 nM
Cc1ccc(C(=O)Nc2ccc(S(=O)(=O)O)c3cc(S(=O)(=O)O)cc(S(=O)(=O)O)c23)cc1NC(=O)c1cccc(NC(=O)Nc2cccc(C(=O)Nc3cc(C(=O)Nc4ccc(S(=O)(=O)O)c5cc(S(=O)(=O)O)cc(S(=O)(=O)O)c45)ccc3C)c2)c1 [SURAMIN HEXASODIUM],IC50,P2Y purinoceptor 13 [10],2300 nM
CC(C)(C)CN1CCC2(CC1)CN(c1ccccc1NC(=O)Nc1nc3ccc(Cl)nc3s1)c1c(O)cc(F)c(-c3ccc(F)cc3)c12,bioavailability,[5],30%
same,clearance,[22],4 mL/min/kg
same,IC50,[31],180 nM
same,Vd,[23]; read-out: Vdss,2.1 L/kg
